Reference: paper PMC3266433 (Antiviral Research, 2011)
Counter-ions that a name gives are not always drawn. Like-named read-outs stand apart in the source and are kept apart here.

Tests used:
DEN2V NS2B-NS3pro [1] = biological target: T1, DEN2V NS2B-NS3pro (Dengue virus type 2, UniProt P29990); test: Single-point DEN2V NS2B-NS3pro inhibition assay to validate hits; type: biochemical, dengue 2 virus; conditions: single-point validation assay
WNV NS2B-NS3pro = WNV NS2B-NS3pro (West Nile virus, UniProt Q9Q6P4); test: Steady-state kinetics of WNV NS2B-NS3pro inhibition; type: biochemical
Chain of WNV NS2B-NS3pro (Q9Q6P4 1428-1467): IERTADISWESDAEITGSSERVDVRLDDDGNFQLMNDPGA
Chain of WNV NS2B-NS3pro (Q9Q6P4 1506-1683): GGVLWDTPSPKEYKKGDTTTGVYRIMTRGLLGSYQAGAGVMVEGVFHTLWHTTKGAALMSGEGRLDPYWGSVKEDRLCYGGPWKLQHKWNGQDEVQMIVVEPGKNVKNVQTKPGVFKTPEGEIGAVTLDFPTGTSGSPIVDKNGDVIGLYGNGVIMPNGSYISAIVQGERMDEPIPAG

[2] = biological target: T2, bovine pancreatic trypsin (Bos taurus, UniProt P00760); test: Single-point trypsin inhibition assay to validate selectivity; type: biochemical; conditions: 100 μM compound; BOC-GRR-AMC 30 μM
T2 sequence (P00760 24-246): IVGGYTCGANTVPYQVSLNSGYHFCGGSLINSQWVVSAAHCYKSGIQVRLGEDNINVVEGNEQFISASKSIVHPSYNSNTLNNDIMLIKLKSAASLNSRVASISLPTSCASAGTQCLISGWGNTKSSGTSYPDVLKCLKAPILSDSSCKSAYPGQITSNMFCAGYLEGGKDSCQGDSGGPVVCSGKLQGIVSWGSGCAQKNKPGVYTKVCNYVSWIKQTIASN

DEN2V NS2B-NS3pro [3] = biological target: T1, DEN2V NS2B-NS3pro; test: Steady-state kinetics of DEN2V NS2B-NS3pro inhibition; type: biochemical, dengue 2 virus; conditions: BOC-GRR-AMC 0 to 1.2 mM
cells = conditions: ref Yip et al., 2006; cited from earlier work
[4] = read-out: Ki1, DEN2V NS2B-NS3pro
[5] = read-out: Ki2, DEN2V NS2B-NS3pro

T1 sequence (P29990 1398-1437): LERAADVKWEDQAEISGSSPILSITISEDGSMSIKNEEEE
T1 sequence (P29990 1476-1653): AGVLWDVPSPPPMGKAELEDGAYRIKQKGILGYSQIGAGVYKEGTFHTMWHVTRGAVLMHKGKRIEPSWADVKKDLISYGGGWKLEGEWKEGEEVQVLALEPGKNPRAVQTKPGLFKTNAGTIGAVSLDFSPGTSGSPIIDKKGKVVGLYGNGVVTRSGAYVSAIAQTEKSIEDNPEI

SMILES	DEN2V protease inhibition (in words) (DEN2V NS2B-NS3pro [1])	Mechanism (WNV NS2B-NS3pro; WNV NS2B-NS3pro)	Ki (WNV NS2B-NS3pro; read-out: Ki1, WNV NS2B-NS3pro)	Ki (WNV NS2B-NS3pro; read-out: Ki2, WNV NS2B-NS3pro)	trypsin inhibition [2]	Mechanism (DEN2V NS2B-NS3pro [3]; DEN2V NS2B-NS3pro)	Ki (DEN2V NS2B-NS3pro [3]; [4])	Ki (DEN2V NS2B-NS3pro [3]; [5])	Ki (WNV NS2B-NS3pro; Ki1, WNV NS2B-NS3pro)	Ki (WNV NS2B-NS3pro; Ki2, WNV NS2B-NS3pro)	Ki (DEN2V NS2B-NS3pro [3]; Ki2, DEN2V NS2B-NS3pro)	CC50 (cell viability reduced by 50%) (cells)
CC[C@H](C)[C@H]1O[C@]2(CC[C@@H]1C)C[C@@H]1C[C@@H](C/C=C(\C)[C@@H](O[C@H]3C[C@H](OC)[C@@H](O[C@H]4C[C@H](OC)[C@@H](O)[C@H](C)O4)[C@H](C)O3)[C@@H](C)/C=C/C=C3\CO[C@@H]4[C@H](O)C(C)=C[C@@H](C(=O)O1)[C@]34O)O2 [MS21, Ivermectin]	inhibited DEN2V protease	mixed	55 ± 18 µM	16 ± 4 µM	did not inhibit trypsin	mixed	79 ± 21 µM	35 ± 4 µM				
Cc1cc(C(C)(C)CC(C)(C)C)ccc1OCCOCC[N+](C)(C)Cc1ccccc1.[Cl-] [MS22, Methylbenzethonium chloride]	inhibited DEN2V protease	mixed	141 ± 20 µM	307 ± 80 µM	did not inhibit trypsin	mixed	322 ± 81 µM	160 ± 39 µM				
CO[C@H]1C[C@H](O[C@@H]2/C(C)=C/C[C@@H]3C[C@@H](C[C@]4(CC[C@H](C)[C@@H](C5CCCCC5)O4)O3)OC(=O)[C@@H]3C=C(C)/C(=N/O)[C@H]4OC/C(=C\C=C\[C@@H]2C)[C@]43O)O[C@@H](C)[C@@H]1O [MS24, Selamectin]	inhibited DEN2V protease	mixed			did not inhibit trypsin	mixed			15 ± 9 µM	28 ± 6 µM	45 ± 8 µM	
CCCCC(CC)CNC(=N)NC(=N)NCCCCCCNC(=N)NC(=N)NCC(CC)CCCC (stereo not shown) [MS28, Alexidine hydrochloride]	inhibited DEN2V protease	mixed			did not inhibit trypsin	mixed inhibition mechanism			12 ± 1.2 µM	28 ± 5 µM	84 ± 16 µM	low micromolar
